The record followed here is ChEMBL document CHEMBL4308865, “Discovery of 4-alkoxy-6-methylpicolinamide negative allosteric modulators of metabotropic glutamate receptor subtype 5” (Bioorg Med Chem Lett, 2019).

The target of data set [1] is T1, Metabotropic glutamate receptor 5 (Homo sapiens, UniProt P41594). The data set is described as follows: Negative allosteric modulation of human mGlu5 receptor assessed as inhibition of glutamate induced-calcium mobilization. Type of data set: functional.
Target sequence in this assay (P41594 whole entry): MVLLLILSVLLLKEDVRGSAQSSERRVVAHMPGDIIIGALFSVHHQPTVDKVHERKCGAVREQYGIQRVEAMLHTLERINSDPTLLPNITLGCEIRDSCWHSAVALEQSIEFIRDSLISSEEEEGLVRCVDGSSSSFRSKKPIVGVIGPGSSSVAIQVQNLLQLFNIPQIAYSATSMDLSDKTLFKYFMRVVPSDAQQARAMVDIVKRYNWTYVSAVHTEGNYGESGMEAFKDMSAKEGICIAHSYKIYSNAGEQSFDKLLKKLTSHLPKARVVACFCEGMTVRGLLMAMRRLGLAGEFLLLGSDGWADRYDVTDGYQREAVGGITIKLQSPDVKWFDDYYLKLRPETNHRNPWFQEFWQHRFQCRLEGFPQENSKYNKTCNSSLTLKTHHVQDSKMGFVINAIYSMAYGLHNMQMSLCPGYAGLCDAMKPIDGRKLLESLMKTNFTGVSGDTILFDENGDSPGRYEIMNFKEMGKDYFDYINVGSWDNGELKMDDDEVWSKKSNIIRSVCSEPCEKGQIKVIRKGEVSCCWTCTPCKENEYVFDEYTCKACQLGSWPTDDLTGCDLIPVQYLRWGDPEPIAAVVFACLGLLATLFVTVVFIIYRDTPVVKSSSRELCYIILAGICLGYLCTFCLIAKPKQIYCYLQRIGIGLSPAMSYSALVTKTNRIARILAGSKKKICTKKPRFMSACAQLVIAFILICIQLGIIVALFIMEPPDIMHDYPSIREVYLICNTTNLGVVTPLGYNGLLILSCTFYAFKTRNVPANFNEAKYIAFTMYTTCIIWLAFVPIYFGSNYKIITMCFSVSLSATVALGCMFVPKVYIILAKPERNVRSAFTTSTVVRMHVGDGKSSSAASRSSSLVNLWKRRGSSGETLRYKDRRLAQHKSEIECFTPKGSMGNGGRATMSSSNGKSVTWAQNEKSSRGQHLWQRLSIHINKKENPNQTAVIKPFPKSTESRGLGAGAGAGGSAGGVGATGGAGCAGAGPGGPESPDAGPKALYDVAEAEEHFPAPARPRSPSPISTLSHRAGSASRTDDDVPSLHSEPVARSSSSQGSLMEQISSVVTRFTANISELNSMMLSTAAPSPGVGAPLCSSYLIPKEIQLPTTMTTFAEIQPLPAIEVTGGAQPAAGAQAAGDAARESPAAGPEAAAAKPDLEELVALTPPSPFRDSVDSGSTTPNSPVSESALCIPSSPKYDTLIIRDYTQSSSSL
Data set [2] addresses T1, Metabotropic glutamate receptor 5. Put plainly: Negative allosteric modulation of human mGlu5 receptor assessed as inhibition of glutamate induced-calcium mobilization relative to glutamate. The class given is functional.
Target sequence in this assay (P41594 21-1212 limits assumed): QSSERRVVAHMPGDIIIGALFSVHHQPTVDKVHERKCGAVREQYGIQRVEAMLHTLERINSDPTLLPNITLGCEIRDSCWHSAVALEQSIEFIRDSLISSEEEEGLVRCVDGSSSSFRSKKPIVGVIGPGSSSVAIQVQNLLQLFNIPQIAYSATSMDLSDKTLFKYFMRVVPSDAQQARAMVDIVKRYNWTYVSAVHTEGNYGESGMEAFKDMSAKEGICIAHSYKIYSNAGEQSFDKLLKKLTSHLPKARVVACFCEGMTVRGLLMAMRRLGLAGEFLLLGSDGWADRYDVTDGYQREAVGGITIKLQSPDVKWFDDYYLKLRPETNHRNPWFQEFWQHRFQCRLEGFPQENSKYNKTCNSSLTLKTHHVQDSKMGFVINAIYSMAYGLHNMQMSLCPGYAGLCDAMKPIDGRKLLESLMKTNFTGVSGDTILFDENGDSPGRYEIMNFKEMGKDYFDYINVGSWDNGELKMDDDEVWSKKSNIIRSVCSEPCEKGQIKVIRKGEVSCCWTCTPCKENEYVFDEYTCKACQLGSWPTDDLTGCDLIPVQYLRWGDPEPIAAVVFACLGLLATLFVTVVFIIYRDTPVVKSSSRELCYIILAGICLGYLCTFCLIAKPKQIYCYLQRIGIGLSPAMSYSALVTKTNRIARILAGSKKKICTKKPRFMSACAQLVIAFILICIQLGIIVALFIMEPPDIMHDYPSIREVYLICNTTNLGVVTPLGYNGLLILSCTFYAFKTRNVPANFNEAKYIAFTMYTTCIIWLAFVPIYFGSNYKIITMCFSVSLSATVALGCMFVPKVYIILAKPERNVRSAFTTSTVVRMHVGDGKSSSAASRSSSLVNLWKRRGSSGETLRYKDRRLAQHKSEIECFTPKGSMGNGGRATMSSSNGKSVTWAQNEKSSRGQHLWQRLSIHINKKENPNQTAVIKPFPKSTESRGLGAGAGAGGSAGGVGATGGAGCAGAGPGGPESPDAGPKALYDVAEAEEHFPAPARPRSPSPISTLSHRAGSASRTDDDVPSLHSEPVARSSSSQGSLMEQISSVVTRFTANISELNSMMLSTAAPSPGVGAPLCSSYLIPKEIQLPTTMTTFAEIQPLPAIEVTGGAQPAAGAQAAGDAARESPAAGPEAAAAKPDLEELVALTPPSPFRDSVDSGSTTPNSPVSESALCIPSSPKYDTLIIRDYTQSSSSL
A short description of data set [3]: Unbound fraction in rat plasma. Type of data set: ADME, cell-free.
A short description of data set [4]: Unbound fraction in human plasma. The class given is ADME, cell-free.
Data set [5] in a line: Brain to plasma partition coefficient, Kp in rat. Type of data set: ADME, organism-based.
For a further data set, the target named is Cytochrome P450 3A4 (Homo sapiens, UniProt P08684). Put plainly: Inhibition of CYP3A4 (unknown origin). Type of data set: ADME.
Sequence of Cytochrome P450 3A4 (P08684 whole entry): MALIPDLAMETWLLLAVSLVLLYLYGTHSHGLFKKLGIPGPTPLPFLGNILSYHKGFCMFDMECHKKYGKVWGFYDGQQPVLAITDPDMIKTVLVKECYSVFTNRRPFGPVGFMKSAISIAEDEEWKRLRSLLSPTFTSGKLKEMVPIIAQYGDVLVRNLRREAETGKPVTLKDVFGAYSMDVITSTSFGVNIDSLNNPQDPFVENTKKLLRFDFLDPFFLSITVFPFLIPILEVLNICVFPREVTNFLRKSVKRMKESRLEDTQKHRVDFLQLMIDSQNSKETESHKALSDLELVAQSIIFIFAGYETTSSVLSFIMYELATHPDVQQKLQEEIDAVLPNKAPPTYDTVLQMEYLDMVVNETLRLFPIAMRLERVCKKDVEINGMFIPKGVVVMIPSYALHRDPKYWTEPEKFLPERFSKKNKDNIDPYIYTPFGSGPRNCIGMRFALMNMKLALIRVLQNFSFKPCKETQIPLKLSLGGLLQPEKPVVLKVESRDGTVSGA
The target in the next data set is Cytochrome P450 2D6 (Homo sapiens, UniProt P10635). Put plainly: Inhibition of CYP2D6 (unknown origin). Type of data set: ADME.
Sequence of Cytochrome P450 2D6 (P10635 whole entry): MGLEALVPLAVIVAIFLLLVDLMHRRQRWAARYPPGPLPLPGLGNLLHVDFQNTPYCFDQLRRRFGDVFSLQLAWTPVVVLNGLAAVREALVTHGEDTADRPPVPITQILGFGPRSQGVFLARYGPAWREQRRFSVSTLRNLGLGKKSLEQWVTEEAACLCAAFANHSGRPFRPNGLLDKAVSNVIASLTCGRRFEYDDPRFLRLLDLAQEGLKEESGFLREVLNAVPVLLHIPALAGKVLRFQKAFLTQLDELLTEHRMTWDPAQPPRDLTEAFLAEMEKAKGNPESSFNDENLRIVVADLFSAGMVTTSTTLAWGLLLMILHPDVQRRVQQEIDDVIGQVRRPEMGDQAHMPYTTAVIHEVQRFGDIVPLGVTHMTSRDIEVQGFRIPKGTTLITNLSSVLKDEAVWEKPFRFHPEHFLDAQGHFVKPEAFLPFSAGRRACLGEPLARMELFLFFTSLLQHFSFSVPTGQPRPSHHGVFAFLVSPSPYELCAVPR
Another data set has as its target T2, Cytochrome P450 1A2 (Homo sapiens, UniProt P05177).
T2 sequence (P05177 whole entry): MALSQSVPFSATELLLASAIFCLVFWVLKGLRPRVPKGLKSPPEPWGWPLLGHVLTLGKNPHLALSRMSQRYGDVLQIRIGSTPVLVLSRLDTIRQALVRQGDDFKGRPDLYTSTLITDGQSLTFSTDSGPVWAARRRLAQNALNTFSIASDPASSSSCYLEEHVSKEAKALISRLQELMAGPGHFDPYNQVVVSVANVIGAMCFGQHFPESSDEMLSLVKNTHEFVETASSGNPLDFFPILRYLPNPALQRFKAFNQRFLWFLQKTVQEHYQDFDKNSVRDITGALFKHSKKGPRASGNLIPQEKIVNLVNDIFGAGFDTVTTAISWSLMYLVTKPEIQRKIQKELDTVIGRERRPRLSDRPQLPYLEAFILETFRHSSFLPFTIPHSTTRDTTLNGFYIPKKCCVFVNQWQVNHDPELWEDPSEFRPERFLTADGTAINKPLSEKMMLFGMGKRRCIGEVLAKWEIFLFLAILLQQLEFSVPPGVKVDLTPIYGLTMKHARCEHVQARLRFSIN
Put plainly: Inhibition of CYP1A2 (unknown origin). Type of data set: ADME.

The target of a further data set is Cytochrome P450 2C9 (Homo sapiens, UniProt P11712). Put plainly: Inhibition of CYP2C9 (unknown origin). The class given is ADME.
Sequence of Cytochrome P450 2C9 (P11712 whole entry): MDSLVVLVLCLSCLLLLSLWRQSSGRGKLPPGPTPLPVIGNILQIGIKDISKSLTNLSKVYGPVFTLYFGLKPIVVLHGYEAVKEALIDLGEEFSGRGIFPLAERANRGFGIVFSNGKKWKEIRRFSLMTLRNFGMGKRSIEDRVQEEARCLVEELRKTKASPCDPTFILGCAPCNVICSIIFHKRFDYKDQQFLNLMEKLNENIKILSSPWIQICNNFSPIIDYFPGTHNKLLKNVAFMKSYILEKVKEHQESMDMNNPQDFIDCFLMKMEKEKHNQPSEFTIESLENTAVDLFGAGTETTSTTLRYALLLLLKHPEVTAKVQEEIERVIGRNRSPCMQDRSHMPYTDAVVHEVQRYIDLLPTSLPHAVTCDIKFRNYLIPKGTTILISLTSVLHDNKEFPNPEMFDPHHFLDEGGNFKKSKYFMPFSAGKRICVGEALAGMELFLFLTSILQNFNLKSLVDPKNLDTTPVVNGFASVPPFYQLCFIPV
A short description of data set [6]: Half life in rat at 0.2 mg/kg, iv. Particulars: in vivo. Type of data set: ADME, organism-based.
Data set [7] is described as follows: Plasma clearance in rat at 0.2 mg/kg, iv. Type of data set: ADME, organism-based.
Data set [8] is described as follows: Volume of distribution at steady state in rat at 0.2 mg/kg, iv. The class given is ADME, organism-based. Particulars: in vivo, read-out: Vdss.
Data set [9] in a line: Drug metabolism in rat S9 fraction assessed as NADPH-dependent oxidation of furanyl moiety. Type of data set: ADME, subcellular.
A short description of data set [10]: Drug metabolism in dog S9 fraction assessed as NADPH-dependent oxidation of furanyl moiety. The class given is ADME, subcellular, Canis lupus familiaris.
Data set [11] in a line: Drug metabolism in human S9 fraction assessed as NADPH-dependent oxidation of furanyl moiety. Type of data set: ADME, subcellular.

For the compound `Cc1cc(O[C@H]2CO[C@H](C)C2)cc(C(=O)Nc2nc(C)cs2)n1`, the 50% inhibitory concentration (IC50) in data set [1] came to 81 nM. For the same compound, the Efficacy in [2] was found to be 1.2%. Besides, the fraction unbound in data set [3] is 0.1; in [4], 0.05. The same compound came in with a Kp in data set [5] of 2.2.
As to `Cc1cc(O[C@@H]2CCOC2)cc(C(=O)Nc2nc(C)cs2)n1`, the IC50 in data set [1] came to 28 nM. Besides, in data set [2], the Efficacy amounted to 1.3%. Besides, in data set [3], the fraction unbound amounted to 0.11. In data set [4], this compound displayed a Fu of 0.08. The INH at Cytochrome P450 3A4 was 30 µM; at Cytochrome P450 2D6, above 30 µM; on Cytochrome P450 1A2, 0.3 µM; on Cytochrome P450 2C9, above 30 µM. The half-life in data set [6] is 1.05 h. Also, in data set [7], the clearance is 34 mL/min/kg. In addition, the Vd in data set [8] was found to be 2.7 L/kg. The Drug metabolism result in [9], in [10] and in data set [11] was “Metabolite_Detected” each time.
